The subject of one data set is MRSA HBP10. In words: Antibacterial MIC, broth microdilution with resazurin. The data set is classed as cell-based, Staphylococcus aureus. The note with it: Staphylococcus aureus; MRSA HBP10, Gram-positive; read-out: MIC. The source says:
(§1) Methicillin-resistant Staphylococcus aureus (MRSA), methicillin-susceptible S. aureus (MSSA), and Gram-negative clinical isolates of bacteria [Escherichia coli (9637) and Serratia marcescens ATCC 13880] were used for this study. […] MSSA HBP10, MSSA LUU7, MSSA R113, S. aureus ONE9, and MSSA POB2 were isolated in Hawaiʻi (Gerken et al. [2021]). Mueller Hinton Broth (MHB, GTIN:00382902979630, Becton, Dickinson and Company, Franklin Lakes, NJ, USA) and Mueller Hinton Agar (MHA, GTIN:00382902252504, Becton, Dickinson and Company, Franklin Lakes, NJ, USA,) were used for bacterial inoculation. MRSA was a pathogen strain causing hospital-acquired infections in 1982. This strain easily acquires resistance to antibiotics, such as vancomycin. MSSA strains isolated from the Island of Hawaiʻi included: Honolʻii Beach Park (HBP10) carry the genes erm(C), aph(3′)-III, and mecA, which provide resistance to macrolide, aminoglycoside, and beta-lactam antibiotics, respectively; Wailuku River (LUU7) which contains the blaZ gene (beta-lactam resistance) (Gerken et al. [2021]). Richardson’s Beach Park (R113) and Onekahakaha (ONE9) which is known for its virulence factors (hlgA, hlgB, hlgC, lukD, and lukE).
(§2) The minimum inhibitory concentrations (MICs) were determined using a two-fold serial dilution method with MHB following the recommendations of the Clinical and Laboratory Standards Institute (CLSI [2012]; Elshikh et al. [2016]). In brief, serial two-fold dilutions of the samples in DMSO were mixed with MHB in a 96-well microplate. Then, 50 µL of bacteria suspension was added to each well, resulting in a final concentration of 1 × 10^4 colony-forming units/well. The plates were incubated at 35–37 °C for 18–24 hr. After incubation, 10 µL of 0.18% resazurin (Cat. No. R7017, Sigma-Aldrich, USA) was added to each well (Elshikh et al. [2016]). The MIC was assessed within 2–3 hr after the addition of resazurin. All antimicrobial assays were performed in triplicate, using vancomycin (Cat. No. SBR00001, Sigma-Aldrich, USA) and gentamicin (Cat. No. G1397, Sigma-Aldrich, USA) as standard controls.
On the technique in general: Broth dilution looks for growth in wells or tubes with falling amounts of substance.

The next data set has as its system S. aureus NEWMAN. The data set is described as above. The data set is classed as cell-based, Staphylococcus aureus. The conditions noted are these: Staphylococcus aureus; S. aureus NEWMAN, Gram-positive; read-out: MIC.
Source text: as §1, §2

A further data set relates to MRSA POB2. The data set is described as above. The class given is cell-based, Staphylococcus aureus. The note with it: Staphylococcus aureus; MRSA POB2, Gram-positive; read-out: MIC.
Source text: as §1, §2

For data set [1], the system named is A549 human lung carcinoma epithelial cells. The data set is described as follows: SRB cytotoxicity assay, A549 cells. The conditions noted are these: SRB assay, 72 h, highest concentration tested 100 µg/ml. On the procedure: After incubation, cells were fixed with trichloroacetic acid (Cat. No. T4885, Sigma-Aldrich, USA), stained with SRB (Cat. No. S9012, Sigma-Aldrich, USA), and the absorbance was measured at 515 nm. Percent cell death was calculated using the following equation: % Cell death=(ODc−OD0)‐(ODs−OD0)/(ODc−OD0)×100
OD0 = Optical density of cells before treatment (baseline reading).
ODC = Optical density of untreated control cells after 72 h.
ODS = Optical density of cells treated with the test sample after 72 h.
Non-linear regression analysis was performed using GraphPad Prism to calculate the IC50 value. This value reflects the concentration needed to inhibit cell growth by 50%.
All data are presented as mean ± standard error of the mean (SEM) and were collected from three separate experiments. Statistical analyses were conducted using Student’s t-test or ANOVA, followed by Tukey’s multiple comparisons test. Significance is indicated by *p < 0.05, **p < 0.01, and ***p < 0.001.
A general note: Sulforhodamine B stains cellular protein and so reports cell mass.

A further data set concerns S. marcescent. In words: Antibacterial MIC, broth microdilution with resazurin. The class given is cell-based, Serratia marcescens. The conditions noted are these: Serratia marcescens, Gram-negative, read-out: MIC.
Source text: as §1, §2

In a further data set the test system is MSSA LUU7. The description is as above. The class given is cell-based. The conditions noted are these: Staphylococcus aureus; MSSA LUU7, Gram-positive; read-out: MIC.
Source text: as §1, §2

For the next data set, the system named is MRSA USA300. The description is as above. The conditions noted are these: Staphylococcus aureus; MRSA USA300, Gram-positive; read-out: MIC. The class given is cell-based.
Source text: as §1, §2

The subject of the next data set is MSSA R113. The data set is described as above. The conditions noted are these: Staphylococcus aureus; MSSA R113, Gram-positive; read-out: MIC. The class given is cell-based.
Source text: as §1, §2

The subject of another data set is E. coli. The data set is described as above. The data set is classed as cell-based. The conditions noted are these: Escherichia coli, Gram-negative.
Source text: as §1, §2

For another data set, the system named is S. aureus 8325-4. The description is as above. The data set is classed as cell-based. The note with it: Staphylococcus aureus, 83254; S. aureus 8325-4, Gram-positive; read-out: MIC.
Source text: as §1, §2

In a further data set the test system is S. aureus ONE9. The description is as above. The note with it: Staphylococcus aureus; S. aureus ONE9, Gram-positive; read-out: MIC. The class given is cell-based.
Source text: as §1, §2

Data set [2] deals with LPS-induced nitric oxide (NO) production in RAW 264.7 cells. The data set is described as follows: Inhibition of NO generation in LPS-induced RAW 264.7 cells (Griess). The class given is cell-based, murine. The note with it: RAW 264.7 cells, LPS-induced, highest concentration 50 μg/mL. On the procedure:
The nitrite concentration in the culture medium was measured to indicate nitric oxide (NO) production as previously described (Min et al. [2009]). The murine macrophage RAW 264.7 cell line was obtained from ATCC, Manassas, VA, USA, and maintained in Dulbecco’s modified Eagle’s medium supplemented with 10% heat-inactivated FBS (Cat. No. A5670801, Gibco BRL Co, Grand Island, NY, USA), penicillin G (100 units/mL) (Cat. No. P7794, Sigma-Aldrich, USA), streptomycin (100 µg/mL) (Cat. No. S9137, Sigma-Aldrich, USA), and L-glutamine (2 mM) (Cat. No. 25030081, Gibco BRL Co, Grand Island, NY, USA). In brief, RAW 264.7 cells were seeded at a density of 4 × 10^4 cells/well in phenol red-free media (Cat. No. 11835030, Gibco, USA) in a 96-well plate, and incubated in a humidified incubator with 5% CO2 at 37 °C for 24 hr. […] The concentration of nitric oxide production was assessed using the Griess reagent, which consists of a 1:1 (v/v) mixture of 1% sulfanilamide (Cat No. A13001, Alfa Aesar, Massachusetts, USA) in H3PO4 and N-(1-naphthyl)ethylenediamine dihydrochloride (Cat. No. 102397, MP Biomedicals, USA). Absorbance was recorded with a microplate reader (SynergyMx, BioTeK, Winooski, VT, USA) at 540 nm. A standard curve was created using sodium nitrite (1–100 μM) (Cat. No. 44227, Alfa Aesar, Massachusetts, USA). A sulforhodamine B (SRB) assay was employed to assess the cellular viability of the samples with RAW 264.7 cells under a similar experimental setup. The final % inhibition of NO production was adjusted based on cell viability.

The subject of the next data set is S. aureus CART817. In words: Antibacterial MIC, broth microdilution with resazurin. The conditions noted are these: Staphylococcus aureus; S. aureus CART817, Gram-positive; read-out: MIC. The data set is classed as cell-based. As for the experimental part:
as §2

Data set [3] relates to ROS/RNS generation in RAW 264.7 cells. The data set is described as follows: Intracellular ROS/RNS levels in LPS-induced RAW 264.7 cells (H2DCF-DA). The class given is cell-based. The conditions noted are these: Mus musculus, RAW264.7; RAW 264.7 cells, H2DCF-DA dye, LPS 1 μg/mL; read-out: IC50, inhibition of LPS-induced ROS/RNS generation. On the procedure: To measure the formation of intracellular ROS and RNS, we utilized the fluorogenic dye 2′,7′-dichlorodihydrofluorescein diacetate (Cat. No. 4091-99-0, H2DCF-DA, Abcam, Boston, MA, USA). This dye detects hydrogen peroxide, peroxyl radicals, and peroxynitrite anions (Kwon et al. [2019]). In brief, RAW 264.7 cells were seeded into a black 96-well plate (Cat. No. 165305, Thermo Fisher, USA) at 4 × 10^4 cells per well and incubated for 24 hr at 37 °C in 5% CO2. Afterward, the cells were treated with or without a sample for 4 hr before adding 1 μg/mL LPS (Cat. No. 00-4976-93, Thermo Fisher, USA) for 20 hr. Once this incubation was complete, the cells were washed twice with fetal bovine serum (FBS)-free media (Cat. No. A5256701, Thermo Fisher, USA) and stained with 10 μM H2DCF-DA (Cat. No. D399, Thermo Fisher, USA) in FBS-free media for 30 min at 37 °C, protected from light. Next, the dye-containing media was discarded, and the cells were washed twice with fresh serum-free media. The relative fluorescent intensity of the cells was measured using a fluorescence plate reader (Synergy H1, BioTeK, Winooski, VT, USA) with excitation/emission at 485 nm/535 nm. Curcumin (Cat. No. C1386-5G, Millipore Sigma, Burlington, MA, USA), a natural phenolic compound with antioxidant activity, was used as positive control. All samples were tested in triplicates. A sulforhodamine B (SRB) assay was conducted to assess cellular viability under a similar experimental setup. The final percentage of inhibition of ROS/RNS generation was calibrated using the % of cell viability.

Converted amounts (≈) assume the structure as drawn.

As usually defined, the MIC is the least concentration at which growth counts as inhibited. With `Nc1cc[nH]c(=O)n1` [Compound 3, cytosine], the MIC in the data set on MRSA HBP10, in the data set on S. aureus NEWMAN, in the data set with MRSA POB2, in the data set with S. marcescent, in the data set on MSSA LUU7 and in the data set on MRSA USA300 was 128 µg/mL (≈ 1150 µM) each time. For the same molecule, the MIC with MSSA R113, in the data set on E. coli, in the data set with S. aureus 8325-4, with S. aureus ONE9 and with S. aureus CART817 was 128 µg/mL (≈ 1150 µM) in each case. The “cytotoxic response against A549 cells (in words)” value in data set [1] is “no cytotoxic response”. Besides, the “NO inhibitory activity (in words)” value in data set [2] is reported as “no significant NO inhibitory activity”.

As for `COc1cc(/C=C/C(=O)CC(=O)/C=C/c2ccc(O)c(OC)c2)ccc1O` [Curcumin, reference compound], the IC50 in data set [3] came to 7.6 ± 0.1 µM.

Source of the values: PMC12203697, “Bioactive constituents from the edible seaweed Halymenia hawaiiana (Rhodophyta)” (Pharmaceutical Biology, 2025).
